Here are results for 24 compounds from patent US4672066A, “Derivatives of 4-acetyl-3-hydroxy-2-alkyl-phenoxycarboxylic acids” (Hoffmann-La Roche Inc., priority 1985, dated 1987).

Like-named read-outs stand apart in the source and are kept apart here.

The target of test [1] is T1, PAF (Canis lupus familiaris, UniProt A0A8I3NSH0).
T1 construct: followed by 2×10^7 dog platelets; from tissue; host or cells: washed platelets from citrate-treated dog blood
T1 sequence (A0A8I3NSH0 1-343): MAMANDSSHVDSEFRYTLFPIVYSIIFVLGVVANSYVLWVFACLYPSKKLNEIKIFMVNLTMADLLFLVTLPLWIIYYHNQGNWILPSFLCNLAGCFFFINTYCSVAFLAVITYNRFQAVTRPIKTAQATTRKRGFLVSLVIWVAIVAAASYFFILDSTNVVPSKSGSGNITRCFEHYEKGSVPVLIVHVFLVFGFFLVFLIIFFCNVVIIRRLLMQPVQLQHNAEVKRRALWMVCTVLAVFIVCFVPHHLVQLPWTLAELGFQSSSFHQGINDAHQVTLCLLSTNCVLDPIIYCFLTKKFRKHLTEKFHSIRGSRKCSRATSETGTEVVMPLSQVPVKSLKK
As to the kind of experiment: PAF Radioreceptor Binding Assay. The following applies: dog platelets, 3H-PAF. The method, then:
Platelet rich plasma is prepared by centrifugation of citrate-treated dog blood. Acidification to pH 6.5 with 0.15 M citric acid and centrifugation for 10 minutes at 1000 xg yields a platelet pellet which is then washed by resuspension in EDTA-Phosphate Buffered Saline (PBS) and recentrifuged. The washed platelet preparation is adjusted to 2×10^7 platelets/50 μl in 0.1% BSA-PBS. […] After mixing, incubating for 10 minutes at room temperature, and centrifuging for 1 minute in a Beckman Microfuge B (8000 xg), the pellet is removed by clipping off the tip of the tube, the platelets are solubilized with 200 μl of 50% methanol, and counted in 10 ml of Aquasol. […] Results obtained with representative compounds of the present invention in this assay are summarized hereinafter in Tables I, II and III.

Test [2] concerns the target T2, TXA2 synthase (Homo sapiens, UniProt P24557).
T2 construct: microsomal fractions from human platelets as enzyme source; from tissue; host or cells: microsomal fraction of human platelets
T2 sequence (P24557 1-533): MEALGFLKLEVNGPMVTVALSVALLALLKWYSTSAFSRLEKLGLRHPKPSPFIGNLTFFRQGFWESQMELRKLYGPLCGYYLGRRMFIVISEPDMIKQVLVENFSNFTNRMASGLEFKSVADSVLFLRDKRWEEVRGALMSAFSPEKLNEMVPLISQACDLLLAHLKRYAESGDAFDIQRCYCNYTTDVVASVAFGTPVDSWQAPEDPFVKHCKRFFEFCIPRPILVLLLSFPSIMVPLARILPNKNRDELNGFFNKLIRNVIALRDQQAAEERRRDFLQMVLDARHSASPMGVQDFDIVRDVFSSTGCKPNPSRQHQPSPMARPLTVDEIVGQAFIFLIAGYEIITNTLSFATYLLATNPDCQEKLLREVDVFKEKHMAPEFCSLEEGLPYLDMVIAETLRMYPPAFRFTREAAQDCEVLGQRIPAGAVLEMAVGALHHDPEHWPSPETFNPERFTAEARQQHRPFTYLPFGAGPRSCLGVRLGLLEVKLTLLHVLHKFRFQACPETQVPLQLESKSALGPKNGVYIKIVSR
In words: Thromboxane Synthase Inhibition, In Vitro. Type of test: biochemical. The note with it: at 1 μM (value in parentheses), human platelet microsomes. As for the experimental part: TXA2 synthase activity is measured by following the conversion of ^14 C-prostaglandin endoperoxide (PGH2) to ^14 C-thromboxane A2 (TXA2) using microsomal fractions from human platelets as enzyme source. In the aqueous incubation medium, the TXA2 decomposes rapidly into TXB2. The amount of TXA2 synthase is adjusted so that under the conditions of the assay approximately 80-90% of the substrate, PGH2, is converted to product in control tubes. To prepare ^14 C-PGH2, ^14 C-AA (50-60 mCi/mmole; Rose Chem.) is incubated with sheep seminal vesicular gland microsomes for 1.5 minutes at 37° C. and then the ^14 C-PGH2 is extracted with diethylether, purified on columns of Sephadex LH-20 or silicic acid, and stored in acetone at -70° C. Incubations are done as follows. Sufficient ^14 C-PGH2 yield a final substrate concentration of 10 μM (~30,000 cpm) is added to the incubation tubes and then the acetone is removed under nitrogen. […] The tubes are incubated at 22° C. for 2 minutes, the reaction is stopped and then the radioactive products and the unconverted PGH2 are extracted and analyzed by thin layer chromatography. […] The amount of ^14 C-PGH2 converted to products was used as a measure of TXA2 synthase activity. Inhibitors were tested initially at a final concentration of 100 μM. Results obtained with representative compounds of the present invention in this assay are summarized hereafter in Table I, II and III.

The subject of test [3] is LTD4. In words: Leukotriene D4 (LTD4) Induced Arrhythmia Test. It is filed as in vivo, guinea pig (Hartley). The note with it: 10 mg/kg i.v. 5 min. before LTD4; conscious guinea pigs. The method, then: Male Hartley guinea pigs are anesthetized with sodium pentobarbital and prepared for monitoring direct blood pressure and injecting drugs intravenously by catheterizing the right carotid artery and right jugular vein. Blood pressure, heart rate, and Lead II ECG are monitored in the conscious animal 24 hours later.
Intravenous administration of LTD4 (2.5 pg/kg) is associated with an increase in blood pressure lasting approximately 1-2 minutes followed by a decrease lasting approximately 5-15 minutes (FIG. 3). Abnormal beats consisting of premature ventricular contractions, ST elevation or depression, atrioventricular conduction block, or dissociated p waves begin during the rise in blood pressure; the peak effect occurs approximately 40 seconds after LTD4. The percent of abnormal beats was quantitated by determining the number present during the first 2 minutes after injection and calculating the percent increase above the control level. During the hypotensive response, the animal usually collapses during the 2nd or 3rd minute after LTD4.

Setting [4] is: Table II, read-out: TXA2 Synth. Inhib. % at (1μM).
Where [5] appears, read: Table I, read-out: TXA2 Syn. Inhib. (1μM).
[6] abbreviates: Table III, read-out: TXA2 Synth. Inhib. % at (1 μM).

The IC50 is the concentration needed to halve the response being measured. A high value points to weaker potency in that assay. For `CCCc1c(OCCCCCC(=O)NCCCCn2ccnc2)ccc(C(C)=O)c1O`, in test [1] (Table II), the IC50 amounted to 1000 nM. In addition, the inhibition at 1 µM in test [2] (setting [4]) came out at 87%.

In turn, `CCCc1c(OCCCCCC(=O)NCCCCc2ccccn2)ccc(C(C)=O)c1O` had an IC50 in test [1] (Table II) of 1000 nM. In addition, the inhibition at 1 µM in test [2] (setting [4]) came out at 0%.

In the case of `CCCc1c(OCCCCCC(=O)NCCCCOc2cccnc2)ccc(C(C)=O)c1O`, the IC50 in test [1] (Table II) stood at 1000 nM. The inhibition at 1 µM in test [2] (setting [4]) was determined as 93%.

In the case of `CCCc1c(OCCCCCC(=O)NCCc2ccncc2)ccc(C(C)=O)c1O`, the IC50 in test [1] (Table II) was 1750 nM. For the same compound, the inhibition at 1 µM in test [2] (setting [4]) amounted to 0%.

On to `CCCc1c(OCCCCC(=O)NCCCCc2cccnc2)ccc(C(C)=O)c1O` [Example 1], for which the 50% inhibitory concentration (IC50) in test [1] (Table I) came out at 1000 nM.

As to `CCCc1c(OCCCCCCCC(=O)NCCCCc2cccnc2)ccc(C(C)=O)c1O` [Example 2, 8-(4-Acetyl-3-hydroxy-2-propylphenoxy)-N-[4-(3-pyridinyl)butyl]octanamide], in test [1] (Table I), the IC50 is 1000 nM.

`CCCc1c(OCCCCCCC(=O)NCCCCc2cccnc2)ccc(C(C)=O)c1O` [Example 3, 7-(4-Acetyl-3-hydroxy-2-propylphenoxy)-N-[4-(3-pyridinyl)butyl]heptanamide] displayed an IC50 in test [1] (Table I) of 1000 nM. The inhibition at 1 µM in test [2] (setting [5]) is 93%.

On to `CCCc1c(OCCC(=O)NCCCCc2cccnc2)ccc(C(C)=O)c1O` [Example 6, 3-(4-Acetyl-3-hydroxy-2-propylphenoxy)-N-[4-(3-pyridinyl)butyl]propanamide], for which the IC50 in test [1] (Table I) was determined as 1000 nM. Further, the inhibition at 1 µM in test [2] (setting [5]) amounted to 77%.

In test [1] (Table I), `CCCc1c(OCC(=O)NCCCCc2cccnc2)ccc(C(C)=O)c1O` [Example 7, (4-Acetyl-3-hydroxy-2-propylphenoxy)-N-[4-(3-pyridinyl)butyl]acetamide] gave an IC50 of 1500 nM. The inhibition at 1 µM in test [2] (setting [5]) came out at 81%.

Regarding `CCCc1c(OCCCCCC(=O)NCCCCCCc2cccnc2)ccc(C(C)=O)c1O` [Example 8, 6-(4-Acetyl-3-hydroxy-2-propylphenoxy)-N-[6-(3-pyridinyl)hexyl]hexanamide], in test [1] (Table I), the 50% inhibitory concentration (IC50) was 1000 nM. In test [2] (setting [5]), the inhibition at 1 µM worked out at 90%.

Regarding `CCCc1c(OCCCCCC(=O)NCCCc2cccnc2)ccc(C(C)=O)c1O` [Example 9, 6-(4-Acetyl-3-hydroxy-2-propylphenoxy)-N-[3-(3-pyridinyl)propyl]hexanamide], in test [1] (Table I), the IC50 turned out to be 2000 nM. The inhibition at 1 µM in test [2] (setting [5]) came to 78%.

On to `CCCc1c(OCCCCCC(=O)NCCc2cccnc2)ccc(C(C)=O)c1O` [Example 10, 6-(4-Acetyl-3-hydroxy-2-propylphenoxy)-N-[2-(3-pyridinyl)ethyl]hexanamide], for which the IC50 in test [1] (Table I) was determined as 500 nM. For the same compound, the inhibition at 1 µM in test [2] (setting [5]) worked out at 35%.

With `CCCc1c(OCCCC(=O)NCCCCCCc2cccnc2)ccc(C(C)=O)c1O` [Example 11, 4-(4-Acetyl-3-hydroxy-2-propylphenoxy)-N-[6-(3-pyridinyl)hexyl]butanamide], the 50% inhibitory concentration (IC50) in test [1] (Table I) was determined as 1000 nM. Besides, in test [2] (setting [5]), the inhibition at 1 µM was found to be 83%.

In turn, `CCCc1c(OCCCC(=O)NCCCc2cccnc2)ccc(C(C)=O)c1O` [Example 12, 4-(4-Acetyl-3-hydroxy-2-propylphenoxy)-N-[3-(3-pyridinyl)propyl]butanamide] displayed an IC50 in test [1] (Table I) of 1500 nM. Further, in test [2] (setting [5]), the inhibition at 1 µM turned out to be 51%.

As for `CCCc1c(OCCCC(=O)NCCc2cccnc2)ccc(C(C)=O)c1O` [Example 13, 4-(4-Acetyl-3-hydroxy-2-propylphenoxy)-N-[2-(3-pyridinyl)ethyl]butanamide], the IC50 in test [1] (Table I) amounted to 400 nM. Moreover, the inhibition at 1 µM in test [2] (setting [5]) is 8%.

As for `CCCc1c(OCCC(C)C(=O)NCCCCc2cccnc2)ccc(C(C)=O)c1O` (stereo not drawn) [Example 22, 4-(4-Acetyl-3-hydroxy-2-propylphenoxy)-2-methyl-N-[4-(3-pyridinyl)butyl]butanamide], the IC50 in test [1] (Table III) was found to be 1000 nM. In addition, the inhibition at 1 µM in test [2] (setting [6]) was 70%.

As for `CCCc1c(OCC(C)CC(=O)NCCCCc2cccnc2)ccc(C(C)=O)c1O` (stereo not drawn) [Example 23, 4-(4-Acetyl-3-hydroxy-2-propylphenoxy)-3-methyl-N-[4-(3-pyridinyl)butyl]butanamide], the IC50 in test [1] (Table III) was determined as 200 nM. Further, the inhibition at 1 µM in test [2] (setting [6]) came to 77%.

In test [1] (Table III), `CCCc1c(OCCC(C)(C)C(=O)NCCCCc2cccnc2)ccc(C(C)=O)c1O` [Example 24, 4-(4-Acetyl-3-hydroxy-2-propylphenoxy)-2,2-dimethyl-N-[4-(3-pyridinyl)butyl]butanamide] had a half-maximal inhibitory concentration (IC50) of 1000 nM. Also, the inhibition at 1 µM in test [2] (setting [6]) was 55%.

Regarding `CCCc1c(OCC(C)CC(=O)NC(C)CCCc2cccnc2)ccc(C(C)=O)c1O` (stereo not drawn) [Example 26, 4-(4-Acetyl-3-hydroxy-2-propylphenoxy)-3-methyl-N-[1-methyl-4-(3-pyridinyl)butyl]-butanamide], the IC50 in test [1] (Table III) was 1000 nM. The inhibition at 1 µM in test [2] (setting [6]) stood at 78%.

For `CCCc1c(OCCCC(=O)NC(C)CCCc2cccnc2)ccc(C(C)=O)c1O` (stereo not drawn) [Example 27, 4-(4-Acetyl-3-hydroxy-2-propylphenoxy)-N-[1-methyl-4-(3-pyridinyl)butyl]butanamide], the IC50 in test [1] (Table III) is 300 nM. Besides, the inhibition at 1 µM in test [2] (setting [6]) worked out at 77%.

`CCCc1c(OCCCNC(=O)NCCCCc2cccnc2)ccc(C(C)=O)c1O` [Example 30, N-[3-(4-acetyl-3-hydroxy-2-propylphenoxy)-propyl]-N'-[4-(3-pyridinyl)butyl]urea] gave an IC50 in test [1] (Table III) of 700 nM. For the same compound, the inhibition at 1 µM in test [2] (setting [6]) stood at 93%.

In turn, `CCCc1c(OCCCC#CC(=O)NCCCCc2cccnc2)ccc(C(C)=O)c1O` [drawing 36] had an IC50 in test [1] (Table II) of 500 nM. For the same compound, the inhibition at 1 µM in test [2] (setting [4]) worked out at 88%.

For the compound `CCCc1c(OCCCCCC(=O)NCCCCc2cccnc2)ccc(C(C)=O)c1O` [drawing 39], in test [3], the “Arrhy's (R/T)” value was 0/5, the “decrease in blood pressure (.dwnarw.XABP)” value is -16 ± 6 Δmm Hg and the “increase in blood pressure (.uparw.XABP)” value is 6 ± 3 Δmm Hg.

Consider `CCCc1c(OCCCC(=O)NCCCCc2cccnc2)ccc(C(C)=O)c1O` [drawing 40], for which, in test [3], the “Arrhy's (R/T)” value is recorded as 0/3, the “decrease in blood pressure (.dwnarw.XABP)” value is listed as -26 ± 8 Δmm Hg and the “increase in blood pressure (.uparw.XABP)” value is on record as 6 ± 6 Δmm Hg.
